From PubChem BioAssay (NCI)
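48-hour exposure; five concentrations; linearly interpolated endpoints. The concentration for full growth arrest is given as TGI.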

Legend:
Experiment in all cases: NCI tumour cell line growth inhibition, 48 h
SN12K1 renal = system: SN12K1 renal
SW-620 colon = system: SW-620 colon
K-562 leukemia = system: K-562 leukemia
HCC-2998 colon = system: HCC-2998 colon
DLD-1 colon = system: DLD-1 colon
P388 leukemia = system: P388 leukemia
UACC-257 melanoma = system: UACC-257 melanoma
KM12 colon = system: KM12 colon
SNB-78 CNS = system: SNB-78 CNS
SK-MEL-28 melanoma = system: SK-MEL-28 melanoma
NCI-H460 lung = system: NCI-H460 lung
HCT-116 colon = system: HCT-116 colon
DMS 114 small cell lung = system: DMS 114 small cell lung
A549 NSCLC = system: A549 NSCLC
SF-295 CNS = system: SF-295 CNS
UO-31 renal = system: UO-31 renal
HOP-62 NSCLC = system: HOP-62 NSCLC
M19-MEL melanoma = system: M19-MEL melanoma
IGROV1 ovarian = system: IGROV1 ovarian
P388/ADR leukemia = system: P388/ADR leukemia
OVCAR-4 ovarian = system: OVCAR-4 ovarian
U251 CNS = system: U251 CNS
HCT-15 colon = system: HCT-15 colon
EKVX NSCLC = system: EKVX NSCLC
OVCAR-5 ovarian = system: OVCAR-5 ovarian
A498 renal = system: A498 renal
SNB-19 CNS = system: SNB-19 CNS
CAKI-1 renal = system: CAKI-1 renal
XF 498 CNS = system: XF 498 CNS
SN12C renal = system: SN12C renal
SK-MEL-5 melanoma = system: SK-MEL-5 melanoma
OVCAR-3 ovarian = system: OVCAR-3 ovarian
SF-268 CNS = system: SF-268 CNS
SK-OV-3 ovarian = system: SK-OV-3 ovarian
HL-60(TB) leukemia = system: HL-60(TB) leukemia
SF-539 CNS = system: SF-539 CNS
LOX IMVI melanoma = system: LOX IMVI melanoma
HOP-18 NSCLC = system: HOP-18 NSCLC
HT29 colon = system: HT29 colon
MALME-3M melanoma = system: MALME-3M melanoma
HOP-92 NSCLC = system: HOP-92 NSCLC
OVCAR-8 ovarian = system: OVCAR-8 ovarian
UACC-62 melanoma = system: UACC-62 melanoma
NCI-H23 lung = system: NCI-H23 lung
DMS 273 small cell lung = system: DMS 273 small cell lung
MOLT-4 leukemia = system: MOLT-4 leukemia
NCI/ADR-RES ovarian = system: NCI/ADR-RES ovarian
NCI-H522 lung = system: NCI-H522 lung
SNB-75 CNS = system: SNB-75 CNS
SK-MEL-2 melanoma = system: SK-MEL-2 melanoma
MCF7 breast = system: MCF7 breast
KM20L2 colon = system: KM20L2 colon
CCRF-CEM leukemia = system: CCRF-CEM leukemia
COLO 205 colon = system: COLO 205 colon
RXF 393 renal = system: RXF 393 renal
TK-10 renal = system: TK-10 renal
M14 melanoma = system: M14 melanoma
RXF-631 renal = system: RXF-631 renal
ACHN renal = system: ACHN renal
RPMI-8226 leukemia = system: RPMI-8226 leukemia
LXFL 529 NSCLC = system: LXFL 529 NSCLC
NCI-H226 lung = system: NCI-H226 lung
786-0 renal = system: 786-0 renal

c1ccc2c3c(ccc2c1)-c1[nH]ncc1CCO3
TGI (SN12K1 renal): > 79.8 µM
TGI (SW-620 colon): > 100 µM
TGI (K-562 leukemia): > 100 µM
TGI (HCC-2998 colon): > 100 µM
TGI (DLD-1 colon): > 100 µM
TGI (P388 leukemia): > 100 µM
TGI (UACC-257 melanoma): 83.6 µM
TGI (KM12 colon): > 100 µM
TGI (SNB-78 CNS): > 100 µM
TGI (SK-MEL-28 melanoma): > 100 µM
TGI (NCI-H460 lung): > 88 µM
TGI (HCT-116 colon): > 88.5 µM
TGI (DMS 114 small cell lung): > 82.4 µM
TGI (A549 NSCLC): > 100 µM
TGI (SF-295 CNS): > 86.1 µM
TGI (UO-31 renal): 65.2 µM
TGI (HOP-62 NSCLC): > 91.9 µM
TGI (M19-MEL melanoma): > 100 µM
TGI (IGROV1 ovarian): > 86.9 µM
TGI (P388/ADR leukemia): > 100 µM
TGI (OVCAR-4 ovarian): > 84.9 µM
TGI (U251 CNS): 51.8 µM
TGI (HCT-15 colon): > 100 µM
TGI (EKVX NSCLC): 45 µM
TGI (OVCAR-5 ovarian): > 86.2 µM
TGI (A498 renal): 99.7 µM
TGI (SNB-19 CNS): > 100 µM
TGI (CAKI-1 renal): > 64 µM
TGI (XF 498 CNS): 79.8 µM
TGI (SN12C renal): > 80.4 µM
TGI (SK-MEL-5 melanoma): > 71.3 µM
TGI (OVCAR-3 ovarian): > 82.1 µM
TGI (SF-268 CNS): 98.8 µM
TGI (SK-OV-3 ovarian): > 100 µM
TGI (HL-60(TB) leukemia): 41.2 µM
TGI (SF-539 CNS): 69.8 µM
TGI (LOX IMVI melanoma): > 93.6 µM
TGI (HOP-18 NSCLC): > 100 µM
TGI (HT29 colon): > 100 µM
TGI (MALME-3M melanoma): > 100 µM
TGI (HOP-92 NSCLC): 57.7 µM
TGI (OVCAR-8 ovarian): > 90.1 µM
TGI (UACC-62 melanoma): > 62.9 µM
TGI (NCI-H23 lung): 75.7 µM
TGI (DMS 273 small cell lung): > 100 µM
TGI (MOLT-4 leukemia): 77.5 µM
TGI (NCI/ADR-RES ovarian): > 100 µM
TGI (NCI-H522 lung): > 81.5 µM
TGI (SNB-75 CNS): > 74.9 µM
TGI (SK-MEL-2 melanoma): 85.3 µM
TGI (MCF7 breast): > 100 µM
TGI (KM20L2 colon): > 95.1 µM
TGI (CCRF-CEM leukemia): > 100 µM
TGI (COLO 205 colon): 99.7 µM
TGI (RXF 393 renal): > 74.2 µM

O=C(CC1(O)C(=O)Nc2c(Cl)cc(Cl)cc21)c1ccccc1 (stereo unspecified)
TGI (SW-620 colon): > 100 µM
TGI (K-562 leukemia): > 100 µM
TGI (UACC-257 melanoma): > 100 µM
TGI (SNB-78 CNS): > 100 µM
TGI (TK-10 renal): > 100 µM
TGI (SK-MEL-28 melanoma): > 100 µM
TGI (NCI-H460 lung): > 100 µM
TGI (HCT-116 colon): > 100 µM
TGI (DMS 114 small cell lung): > 100 µM
TGI (A549 NSCLC): > 100 µM
TGI (M14 melanoma): > 100 µM
TGI (SF-295 CNS): > 100 µM
TGI (UO-31 renal): > 100 µM
TGI (M19-MEL melanoma): > 100 µM
TGI (IGROV1 ovarian): > 100 µM
TGI (RXF-631 renal): > 100 µM
TGI (OVCAR-4 ovarian): > 100 µM
TGI (HCT-15 colon): > 100 µM
TGI (EKVX NSCLC): > 100 µM
TGI (OVCAR-5 ovarian): > 100 µM
TGI (A498 renal): > 100 µM
TGI (SNB-19 CNS): > 100 µM
TGI (ACHN renal): > 100 µM
TGI (RPMI-8226 leukemia): > 100 µM
TGI (CAKI-1 renal): > 100 µM
TGI (XF 498 CNS): > 100 µM
TGI (SN12C renal): > 100 µM
TGI (SK-MEL-5 melanoma): > 100 µM
TGI (OVCAR-3 ovarian): > 100 µM
TGI (SF-268 CNS): > 100 µM
TGI (SK-OV-3 ovarian): > 100 µM
TGI (HL-60(TB) leukemia): > 100 µM
TGI (SF-539 CNS): > 100 µM
TGI (LOX IMVI melanoma): > 100 µM
TGI (HT29 colon): > 100 µM
TGI (MALME-3M melanoma): > 100 µM
TGI (LXFL 529 NSCLC): > 100 µM
TGI (NCI-H226 lung): > 100 µM
TGI (HOP-92 NSCLC): > 100 µM
TGI (OVCAR-8 ovarian): > 100 µM
TGI (786-0 renal): > 100 µM
TGI (UACC-62 melanoma): > 100 µM
TGI (NCI-H23 lung): > 100 µM
TGI (DMS 273 small cell lung): > 100 µM
TGI (MOLT-4 leukemia): > 100 µM
TGI (NCI-H522 lung): > 100 µM
TGI (SNB-75 CNS): > 100 µM
TGI (SK-MEL-2 melanoma): > 100 µM
TGI (KM20L2 colon): > 100 µM
TGI (COLO 205 colon): > 100 µM
TGI (RXF 393 renal): > 100 µM
